Measured values as given in patent US11028090B2 (Dong Wha Pharm. Co., Ltd., priority 2017, dated 2021).
Read-outs that look alike come from different tables or passages of the source.

Target: BRD4 (BD1+BD2) bromodomain (Homo sapiens (Human), UniProt O60885)
Experiment: BRD4 binding inhibition (AlphaScreen, GST-BRD4 vs tetraacetylated histone H4 peptide)
Experimental: A mixture comprising 100 nM GST-BRD4 (BD1+BD2) and 100 nM biotinylated acetyl-histone H4 (Lys5,8,12,16) peptide was prepared in assay buffer (50 mM HEPES pH 7.4; 25 mM NaCl; 0.05% Tween 20; 0.1% bovine serum albumin (BSA); 10 mM dithiothreitol (DTT)). After adding 6 μl of the mixture to the diluent, 6 μl of the pre-mixed AlphaLISA Glutathione Acceptor Beads and AlphaScreen Streptavidin Donor Beads (PerkinElmer, 10 μg/ml in assay buffer, respectively) was added thereto. The samples were incubated in the dark at room temperature for 30 minutes (shaking at 300 rpm). Then, the signals were measured with PerkinElmer Envision HTS Multilabel Reader using an alpha screen protocol of PerkinElmer. Each plate contained the negative control in which biotinylated acetyl-histone H4 peptide and GST-BRD4 (BD1+BD2) were replaced by assay buffer. In the case of using the software GraphPad Prism for calculation, the negative control point was input as a low standard value. The positive control (probe molecule l-BET762 containing protein/peptide mixture) proceeded to pipetting.

[1] = GST-BRD4 (BD1+BD2) / biotinylated acetyl-histone H4 (Lys5,8,12,16) peptide, read-out: IC50, BRD4 binding inhibition
[2] = GST-BRD4 (BD1+BD2) vs biotinylated acetyl-histone H4 peptide, AlphaScreen, read-out: BRD4 IC50

Row | Structure (SMILES) | IC50 [1] [nM] | IC50 [2] [nM]
1 | CC(=O)OC(C)(C)C(=O)NCCCCNc1nc2cc(-c3nc4ccccc4n3C)ccc2n2c(C)nnc12 [Example 231, acetic acid-1-{4-[7-(1-methyl-1H-benzoimidazole-2-yl)-1-methyl-[1,2,4]triazolo[4,3-a]quinoxaline-4-ylamino]-butylcarbamoyl}-1-methyl-ethylester] | ≤ 50 | 14
2 | Cc1ccc2nc(NCCCCNC(=O)Nc3ccccc3)c3nnc(C)n3c2c1 [Example 46, 1-[4-(1,8-dimethyl-[1,2,4]triazolo[4,3-a]quinoxaline-4-ylamino)-butyl]-3-phenyl-urea] | – | 73
3 | CC(=O)Nc1ccc2nc(NCCCCNC(=O)c3ccccc3)c3nnc(C)n3c2c1 [Example 548, N-[4-(8-acetamino-1-methyl-[1,2,4]triazolo[4,3-a]quinoxaline-4-ylamino)-butyl]-benzamide] | ≤ 50 | 45
4 | Cc1nnc2c(NCCCCNC(=O)OC(C)(C)C)nc3ccc(C(=O)NC(C)C)cc3n12 [Example 532, [4-(8-isopropylcarbamoyl-1-methyl-[1,2,4]triazolo[4,3-a]quinoxaline-4-ylamino)-butyl]-carbamic acid-tert-butylester] | – | 75
5 | COCCOc1ccc2c(c1)nc(NCCCCNC(=O)C(C)(C)C(F)(F)F)c1nnc(C)n12 [Example 392, 3,3,3-trifluoro-N-{4-[7-(2-methoxy-ethoxy)-1-methyl-[1,2,4]triazolo[4,3-a]quinoxaline-4-ylamino]-butyl}-2,2-dimethyl-propionamide] | ≤ 10 | 9
6 | COc1cc2nc(NCCCCNC(=O)NC3CCCCC3)c3nnc(C)n3c2cc1C(F)(F)F [Example 482, 1-cyclohexyl-3-[4-(7-methoxy-1-methyl-8-trifluoromethyl-[1,2,4]triazolo[4,3-a]quinoxaline-4-ylamino)-butyl]-urea] | ≤ 50 | 20
7 | COCCOc1ccc2c(c1)nc(NCCCCNC(=O)N1CCOCC1)c1nnc(C)n12 [Example 425, morpholine-4-carboxylic acid-{4-[7-(2-methoxy-ethoxy)-1-methyl-[1,2,4]triazolo[4,3-a]quinoxaline-4-ylamino]-butyl}-amide] | ≤ 50 | 28
8 | Cc1nnc2c(NCCCCNC(=O)[C@H](O)C(C)C)nc3cc(F)c(F)cc3n12 [Example 38, N-[4-(7,8-difluoro-1-methyl-[1,2,4]triazolo[4,3-a]quinoxaline-4-ylamino)-butyl]-2-(R)-hydroxy-3-methyl-butyramide] | – | 97
9 | Cc1nnc2c(NCCCCNC(=O)OC(C)(C)C)nc3ccc([N+](=O)[O-])cc3n12 [Example 541, [4-(1-methyl-8-nitro-[1,2,4]triazolo[4,3-a]quinoxaline-4-ylamino)-butyl]-carbamic acid-tert-butylester] | ≤ 50 | 37
10 | Cc1nnc2c(NCCCCNC(=O)CC(C)C)nc3cc(Cl)c(Cl)cc3n12 [Example 30, N-[4-(7,8-dichloro-1-methyl-[1,2,4]triazolo[4,3-a]quinoxaline-4-ylamino)-butyl]-3-methyl-butyramide] | ≤ 10 | –
11 | Cc1nnc2c(NCCCCNC(=O)CC(C)C)nc3cc(OCc4ccc(-c5nn[nH]n5)cc4)ccc3n12 [Example 348, 3-methyl-N-(4-{1-methyl-7-[4-(2H-tetrazol-5-yl)-benzyloxy]-[1,2,4]triazolo[4,3-a]quinoxaline-4-ylamino}-butyl)-butyramide] | – | 100
12 | COc1cc2c(cc1C)nc(NCCCCNC(=O)c1ccccc1)c1nnc(C)n12 [Example 154, N-[4-(8-methoxy-1,7-dimethyl-[1,2,4]triazolo[4,3-a]quinoxaline-4-ylamino)-butyl]-benzamide] | – | 78
13 | Cc1nnc2c(NCCCCNC(=O)Nc3cccc(F)c3)nc3ccccc3n12 [Example 24, 1-(3-fluoro-phenyl)-3-[4-(1-methyl-[1,2,4]triazolo[4,3-a]quinoxaline-4-ylamino)-butyl]-urea] | – | 67
14 | CC(=O)Nc1ccc2nc(NCCCCNC(=O)OC(C)(C)C)c3nnc(C)n3c2c1 [Example 546, [4-(8-acetamino-1-methyl-[1,2,4]triazolo[4,3-a]quinoxaline-4-ylamino)-butyl]-carbamic acid-tert-butylester] | ≤ 50 | –
15 | COCCOc1ccc2c(c1)nc(NCCCCNC(=O)C(C)(C)OC(C)=O)c1nnc(C)n12 [Example 384, acetic acid-1-{4-[7-(2-methoxy-ethoxy)-1-methyl-[1,2,4]triazolo[4,3-a]quinoxaline-4-ylamino]-butylcarbamoyl}-1-methyl-ethylester] | ≤ 50 | 41
16 | COCCOc1ccc2c(c1)nc(NCCCCNC(=O)COC(C)=O)c1nnc(C)n12 [Example 386, acetic acid-{4-[7-(2-methoxy-ethoxy)-1-methyl-[1,2,4]triazolo[4,3-a]quinoxaline-4-ylamino]-butylcarbamoyl}-methylester] | – | 78

Row | Structure (SMILES) | IC50 [1] [nM] | IC50 [2] [nM]
17 | COc1cc(C)c2c(c1)nc(NCCCCNC(=O)OC(C)(C)C)c1nnc(C)n12 [Example 455, [4-(7-methoxy-1,9-dimethyl-[1,2,4]triazolo[4,3-a]quinoxaline-4-ylamino)-butyl]-carbamic acid-tert-butylester] | ≤ 50 | 31
18 | Cc1nnc2c(NCCCCNC(=O)[C@@H](F)C(C)C)nc3cc(N4C[C@@H](C)O[C@@H](C)C4)ccc3n12 [Example 511, N-{4-[7-(2,6-dimethyl-morphonyl-4-yl)-1-methyl-[1,2,4]triazolo[4,3-a]quinoxaline-4-ylamino]-butyl}-2-(S)-fluoro-3-methyl-butyramide] | ≤ 50 | 34
19 | COCCOc1ccc2c(c1)nc(NCCCCNC(=O)NC(C)(C)C)c1nnc(C)n12 [Example 424, 1-tert-butyl-3-{4-[7-(2-methoxy-ethoxy)-1-methyl-[1,2,4]triazolo[4,3-a]quinoxaline-4-ylamino]-butyl}-urea] | ≤ 50 | 25
20 | CCNC(=O)NCCCCNc1nc2cc(OCCOC)ccc2n2c(C)nnc12 [Example 423, 1-ethyl-3-{4-[7-(2-methoxy-ethoxy)-1-methyl-[1,2,4]triazolo[4,3-a]quinoxaline-4-ylamino]-butyl}-urea] | ≤ 50 | 27
21 | Cc1noc(C)c1-c1ccc2c(c1)nc(NCCCCNC(=O)OC(C)(C)C)c1nnc(C)n12 [Example 583, {4-[7-(3,5-dimethyl-isoxazol-4-yl)-1-methyl-[1,2,4]triazolo[4,3-a]quinoxaline-4-ylamino]-butyl}-carbamic acid-tert-butylester] | ≤ 10 | 5
22 | Cc1nnc2c(NCCCCNC(=O)C(C)(C)O)nc3cc(-c4nc5ccccc5n4C)ccc3n12 [Example 232, 2-hydroxy-N-{4-(7-(1-methyl-1H-benzoimidazole-2-yl)-1-methyl-[1,2,4]triazolo[4,3-a]quinoxaline-4-ylamino)-butyl}-2-methyl-propionamide] | ≤ 50 | 33
23 | Cc1nnc2c(NCCCCNC(=O)[C@H](O)C(C)C)nc3cc(N4CCSCC4)ccc3n12 [Example 524, N-[4-(7-thiomorphonyl-4-yl-1-methyl-[1,2,4]triazolo[4,3-a]quinoxaline-4-ylamino)-butyl]-2-(R)-hydroxy-3-methyl-butyramide] | – | 69
24 | Cc1nnc2c(NCCCCNC(=O)C(C)(C)C)nc3ccc(NC(=O)C(C)C)cc3n12 [Example 545] | – | 65
25 | CC(=O)OCC(=O)NCCCCNc1nc2cc3c(cc2n2c(C)nnc12)OCCO3 [Example 184] | ≤ 50 | 30
26 | Cc1nnc2c(NCCCCNC(=O)OC(C)(C)C)nc3cc(C(=O)c4ccccc4)ccc3n12 [Example 260, [4-(7-benzoyl-1-methyl-[1,2,4]triazolo[4,3-a]quinoxaline-4-ylamino)-butyl]-carbamic acid-tert-butylester] | – | 62
27 | Cc1nnc2c(NCCCCN)nc3cc(OC(C)C)ccc3n12 [Example 448, N^1-(7-isopropoxy-1-methyl-[1,2,4]triazolo[4,3-a]quinoxaline-4-yl)-butane-1,4-diamine ditrifluoroacetic acid] | ≤ 10 | 5
28 | COCCOc1ccc2c(c1)nc(NCCCCNC(=O)c1ccncc1)c1nnc(C)n12 [Example 418, N-{4-[7-(2-methoxy-ethoxy)-1-methyl-[1,2,4]triazolo[4,3-a]quinoxaline-4-ylamino]-butyl}-isonicotinamide] | ≤ 50 | 49
29 | COCC(=O)NCCCCNc1nc2cc(OC)c(OC)cc2n2c(C)nnc12 [Example 80, N-[4-(7,8-dimethoxy-1-methyl-[1,2,4]triazolo[4,3-a]quinoxaline-4-ylamino)-butyl]-2-methoxy-acetamide] | ≤ 50 | 28
30 | Cc1nnc2c(NCCCCNC(=O)c3ccccc3)nc3ccc(C(=O)NCCN(C)C)cc3n12 [Example 537, 4-(4-benzoylamino)-1-methyl-[1,2,4]triazolo[4,3-a]quinoxaline-8-carboxylic acid-(2-dimethylamino-ethyl)-amide] | – | 93
31 | COc1ccc2c(c1)nc(NCCCCNC(=O)[C@@H](NC(=O)[C@H](C)O)C(C)C)c1nnc(C)n12 [Example 324, 2-(S)-(2-(S)-hydroxy-propionylamino)-N-[4-(7-methoxy-1-methyl-[1,2,4]triazolo[4,3-a]quinoxaline-4-ylamino)-butyl]-3-methyl-butyramide] | ≤ 10 | 7
